Measured values published in publication PMC10569036.

Tests used:
[1] = shake flask on a mixture of 185; loss from the water phase only; LC-QTOF peak areas; settings: room
[2] = shake flask on a mixture of 185; loss from the water phase only; LC-Orbitrap peak areas; settings: room

log partition 1-octanol / HPLC water, unbuffered, traces of methanol / DMSO [2] [log10]	log partition butyl acetate / HPLC water, unbuffered, traces of methanol / DMSO [2] [log10]	log partition chloroform / HPLC water, unbuffered, traces of methanol / DMSO [2] [log10]	log partition cyclohexane / HPLC water, unbuffered, traces of methanol / DMSO [2] [log10]	log partition dichloromethane / HPLC water, unbuffered, traces of methanol / DMSO [2] [log10]	log partition n-hexane / HPLC water, unbuffered, traces of methanol / DMSO [2] [log10]	log partition n-octane / HPLC water, unbuffered, traces of methanol / DMSO [2] [log10]	log partition n-undecane / HPLC water, unbuffered, traces of methanol / DMSO [2] [log10]	log partition oleylalcohol / HPLC water, unbuffered, traces of methanol / DMSO [2] [log10]	log partition toluene / HPLC water, unbuffered, traces of methanol / DMSO [2] [log10]	SMILES	log partition 1-octanol / HPLC water, unbuffered, traces of methanol / DMSO [1] [log10]	log partition butyl acetate / HPLC water, unbuffered, traces of methanol / DMSO [1] [log10]	log partition chloroform / HPLC water, unbuffered, traces of methanol / DMSO [1] [log10]	log partition cyclohexane / HPLC water, unbuffered, traces of methanol / DMSO [1] [log10]	log partition dichloromethane / HPLC water, unbuffered, traces of methanol / DMSO [1] [log10]	log partition n-hexane / HPLC water, unbuffered, traces of methanol / DMSO [1] [log10]	log partition n-octane / HPLC water, unbuffered, traces of methanol / DMSO [1] [log10]	log partition n-undecane / HPLC water, unbuffered, traces of methanol / DMSO [1] [log10]	log partition oleylalcohol / HPLC water, unbuffered, traces of methanol / DMSO [1] [log10]	log partition toluene / HPLC water, unbuffered, traces of methanol / DMSO [1] [log10]
0.1891	-1.323	1.041	-0.4548	0.004436	-0.9186	-0.654	-1.481	-0.1011	-0.9524	CC(C)N1C(=O)c2ccccc2NS1(=O)=O	-1.303	-1.026	0.1169	-1.509	0.3228	-1.425	-1.602	-1.756	-1.143	-0.5708
1.665	2.111	0.8448	-0.5373	1.668	-1.173	-0.7644	-1.267	1.444	0.1696	O=C(c1ccccc1)c1ccc(O)cc1O	2.033	2.368	1.568	-0.7702	1.235	-0.7955	-0.8875	-0.7905	1.696	1.076
0.493	0.5439	0.2882	-0.9006	0.4782	-1.209	-0.9336	-1.048	0.1818	-0.4224	OCCN(CCO)c1ccccc1	0.7171	0.3605	-0.02211	-1.946	0.1152	-1.82	-2.014	-1.783	0.6347	-1.086
1.192	0.997	0.5005	0.7696	1.312	0.8609	0.7922	0.7687	1.252	0.9027	CN(C1CCCCC1)S(=O)(=O)c1ccccc1N	-0.8134	0.2235	0.4748	-0.5397	0.1793	-0.5682	-0.5115	-0.8537	-0.9123	-0.3194

The next lines start with the molecule.

SMILES	log partition 1-octanol / HPLC water, unbuffered, traces of methanol / DMSO [2] [log10]	log partition butyl acetate / HPLC water, unbuffered, traces of methanol / DMSO [2] [log10]	log partition chloroform / HPLC water, unbuffered, traces of methanol / DMSO [2] [log10]	log partition cyclohexane / HPLC water, unbuffered, traces of methanol / DMSO [2] [log10]	log partition dichloromethane / HPLC water, unbuffered, traces of methanol / DMSO [2] [log10]	log partition n-hexane / HPLC water, unbuffered, traces of methanol / DMSO [2] [log10]	log partition n-octane / HPLC water, unbuffered, traces of methanol / DMSO [2] [log10]	log partition n-undecane / HPLC water, unbuffered, traces of methanol / DMSO [2] [log10]	log partition oleylalcohol / HPLC water, unbuffered, traces of methanol / DMSO [2] [log10]	log partition toluene / HPLC water, unbuffered, traces of methanol / DMSO [2] [log10]	log partition 1-octanol / HPLC water, unbuffered, traces of methanol / DMSO [1] [log10]	log partition butyl acetate / HPLC water, unbuffered, traces of methanol / DMSO [1] [log10]	log partition chloroform / HPLC water, unbuffered, traces of methanol / DMSO [1] [log10]	log partition cyclohexane / HPLC water, unbuffered, traces of methanol / DMSO [1] [log10]	log partition dichloromethane / HPLC water, unbuffered, traces of methanol / DMSO [1] [log10]	log partition n-hexane / HPLC water, unbuffered, traces of methanol / DMSO [1] [log10]	log partition n-octane / HPLC water, unbuffered, traces of methanol / DMSO [1] [log10]	log partition n-undecane / HPLC water, unbuffered, traces of methanol / DMSO [1] [log10]	log partition oleylalcohol / HPLC water, unbuffered, traces of methanol / DMSO [1] [log10]	log partition toluene / HPLC water, unbuffered, traces of methanol / DMSO [1] [log10]
CCC(C)(CC)c1cc(NC(=O)c2c(OC)cccc2OC)on1	2.911	2.863	1.794	1.372	2.835	0.9138	0.8981	0.6241	2.582	2.848	1.786	2.159	2.432	1.696	1.861	0.9529	1.176	1.012	2.115	2.04
Cc1cc2c3c(c1)C(c1ccccc1)=N[C@@H](NC(=O)c1ccncc1)C(=O)N3CC2	1.331	2.844	1.438	0.6947	2.402	-0.4559	0.088	0.07291	1.282	1.875	2.552	2.569	2.171	0.1916	2.144	-0.2402	-0.1186	-0.161	2.273	2.127
Nc1cc2c3c(c1)C(c1ccccc1)=N[C@@H](NC(=O)c1cccnc1)C(=O)N3CC2	1.8	1.849	1.811	-0.6201	1.949	-0.5688	-0.5885	-0.7259	1.341	0.4674	1.4	1.224	1.953	-0.8456	2.001	-0.527	-1.018	-1.615	1.111	0.4515
NC(=O)Nc1ccc(Cl)cc1	0.591	0.6709	-0.4936		-0.3897				0.6552	-1.194	1.214	0.7995	-0.1363		-0.2421				1.051	-0.9053
